According to the NIST ThermoML archive (doi:10.1021/je060271a):
± gives the expanded uncertainty stated by the source.

Details: 303.16 K, Liquid, Vibrating tube method

Question: What does the source list for CCCC(=O)OCC(COC(=O)CCC)(COC(=O)CCC)COC(=O)CCC [pentaerythritol tetrabutyrate]?
Answer: mass density (218.9 kPa): 1042.3 ± 1.2 kg/m3; mass density (232.4 kPa): 1042.3 ± 1.2 kg/m3; mass density (246.9 kPa): 1042.3 ± 1.2 kg/m3; mass density (262 kPa): 1042.5 ± 1.2 kg/m3; mass density (324.9 kPa): 1042.3 ± 1.2 kg/m3; mass density (472.3 kPa): 1042.4 ± 1.2 kg/m3; mass density (544.7 kPa): 1042.5 ± 1.2 kg/m3; mass density (563.5 kPa): 1042.5 ± 1.2 kg/m3; mass density (587.1 kPa): 1042.5 ± 1.2 kg/m3; mass density (607.3 kPa): 1042.4 ± 1.2 kg/m3; mass density (629 kPa): 1042.6 ± 1.2 kg/m3; mass density (656.4 kPa): 1042.6 ± 1.2 kg/m3; mass density (678.3 kPa): 1042.6 ± 1.2 kg/m3; mass density (696.6 kPa): 1042.6 ± 1.2 kg/m3; mass density (718.1 kPa): 1042.7 ± 1.2 kg/m3; mass density (737.2 kPa): 1042.6 ± 1.2 kg/m3; mass density (757 kPa): 1042.6 ± 1.2 kg/m3; mass density (776.8 kPa): 1042.6 ± 1.2 kg/m3; mass density (796 kPa): 1042.7 ± 1.2 kg/m3; mass density (818.2 kPa): 1042.7 ± 1.2 kg/m3; mass density (836.3 kPa): 1042.7 ± 1.2 kg/m3; mass density (853.6 kPa): 1042.7 ± 1.2 kg/m3; mass density (873.1 kPa): 1042.8 ± 1.2 kg/m3; mass density (890.5 kPa): 1042.7 ± 1.2 kg/m3; mass density (907.8 kPa): 1042.7 ± 1.2 kg/m3; mass density (929.5 kPa): 1042.8 ± 1.2 kg/m3; mass density (947.9 kPa): 1042.7 ± 1.2 kg/m3; mass density (966.4 kPa): 1042.8 ± 1.2 kg/m3; mass density (985.3 kPa): 1042.9 ± 1.2 kg/m3; mass density (1007.9 kPa): 1042.8 ± 1.2 kg/m3; mass density (1026.6 kPa): 1042.8 ± 1.2 kg/m3; mass density (1044.5 kPa): 1042.8 ± 1.2 kg/m3; mass density (1062.2 kPa): 1042.9 ± 1.2 kg/m3; mass density (1083.2 kPa): 1043 ± 1.2 kg/m3; mass density (1101 kPa): 1042.8 ± 1.2 kg/m3; mass density (1119.2 kPa): 1042.9 ± 1.2 kg/m3; mass density (1141.3 kPa): 1042.9 ± 1.2 kg/m3; mass density (1160.5 kPa): 1042.9 ± 1.2 kg/m3; mass density (1180.3 kPa): 1042.9 ± 1.2 kg/m3; mass density (1203.2 kPa): 1042.8 ± 1.2 kg/m3; mass density (1223.6 kPa): 1042.8 ± 1.2 kg/m3; mass density (1243.7 kPa): 1043 ± 1.2 kg/m3; mass density (1290.1 kPa): 1043 ± 1.2 kg/m3; mass density (1358.8 kPa): 1043.1 ± 1.2 kg/m3; mass density (1379.7 kPa): 1043 ± 1.2 kg/m3; mass density (1401.5 kPa): 1043 ± 1.2 kg/m3; mass density (1428.1 kPa): 1043.1 ± 1.2 kg/m3; mass density (1450.3 kPa): 1043.1 ± 1.2 kg/m3; mass density (1473.3 kPa): 1043.1 ± 1.2 kg/m3; mass density (1501.7 kPa): 1043.2 ± 1.2 kg/m3; mass density (1526.2 kPa): 1043.1 ± 1.2 kg/m3; mass density (1550.9 kPa): 1043.1 ± 1.2 kg/m3; mass density (1583.5 kPa): 1043.2 ± 1.2 kg/m3; mass density (1604.5 kPa): 1043.2 ± 1.2 kg/m3; mass density (1630.2 kPa): 1043.2 ± 1.2 kg/m3; mass density (1662.3 kPa): 1043.2 ± 1.2 kg/m3; mass density (1689.4 kPa): 1043.3 ± 1.2 kg/m3; mass density (1717.5 kPa): 1043.3 ± 1.2 kg/m3; mass density (1751.5 kPa): 1043.3 ± 1.2 kg/m3; mass density (1780.2 kPa): 1043.3 ± 1.2 kg/m3; mass density (1810 kPa): 1043.3 ± 1.2 kg/m3; mass density (1846.1 kPa): 1043.4 ± 1.2 kg/m3; mass density (1877 kPa): 1043.3 ± 1.2 kg/m3; mass density (1908.8 kPa): 1043.5 ± 1.2 kg/m3; mass density (1942.4 kPa): 1043.5 ± 1.2 kg/m3; mass density (1983.9 kPa): 1043.5 ± 1.2 kg/m3; mass density (2011.5 kPa): 1043.6 ± 1.2 kg/m3; mass density (2053.9 kPa): 1043.4 ± 1.2 kg/m3; mass density (2086.5 kPa): 1043.6 ± 1.2 kg/m3; mass density (2109.2 kPa): 1043.5 ± 1.2 kg/m3; mass density (2134.7 kPa): 1043.5 ± 1.2 kg/m3; mass density (2155.2 kPa): 1043.4 ± 1.2 kg/m3; mass density (2176 kPa): 1043.6 ± 1.2 kg/m3; mass density (2200.7 kPa): 1043.6 ± 1.2 kg/m3; mass density (2220.8 kPa): 1043.6 ± 1.2 kg/m3; mass density (2241.1 kPa): 1043.6 ± 1.2 kg/m3; mass density (2266.1 kPa): 1043.6 ± 1.2 kg/m3; mass density (2286.5 kPa): 1043.6 ± 1.2 kg/m3; mass density (2308 kPa): 1043.7 ± 1.2 kg/m3; mass density (2333 kPa): 1043.7 ± 1.2 kg/m3; mass density (2354.7 kPa): 1043.7 ± 1.2 kg/m3; mass density (2376.6 kPa): 1043.7 ± 1.2 kg/m3; mass density (2398.4 kPa): 1043.7 ± 1.2 kg/m3; mass density (2422.9 kPa): 1043.8 ± 1.2 kg/m3; mass density (2443.3 kPa): 1043.9 ± 1.2 kg/m3; mass density (2464.3 kPa): 1043.6 ± 1.2 kg/m3; mass density (2488.8 kPa): 1043.8 ± 1.2 kg/m3; mass density (2509.4 kPa): 1043.8 ± 1.2 kg/m3; mass density (2530.2 kPa): 1043.8 ± 1.2 kg/m3; mass density (2554.7 kPa): 1043.7 ± 1.2 kg/m3; mass density (2576.2 kPa): 1043.9 ± 1.2 kg/m3; mass density (2597.2 kPa): 1043.9 ± 1.2 kg/m3; mass density (2618.2 kPa): 1043.9 ± 1.2 kg/m3; mass density (2643 kPa): 1043.9 ± 1.2 kg/m3; mass density (2663.8 kPa): 1044 ± 1.2 kg/m3; mass density (2685.1 kPa): 1043.9 ± 1.2 kg/m3; mass density (2711.1 kPa): 1044 ± 1.2 kg/m3; mass density (2732.8 kPa): 1044 ± 1.2 kg/m3; mass density (2754.8 kPa): 1044 ± 1.2 kg/m3; mass density (2781 kPa): 1043.9 ± 1.2 kg/m3; mass density (2802.9 kPa): 1044 ± 1.2 kg/m3; mass density (2824.7 kPa): 1044 ± 1.2 kg/m3; mass density (2874.3 kPa): 1044.1 ± 1.2 kg/m3; mass density (2897.5 kPa): 1044 ± 1.2 kg/m3; mass density (2943.5 kPa): 1044.1 ± 1.2 kg/m3; mass density (2971 kPa): 1044.1 ± 1.2 kg/m3; mass density (2993.1 kPa): 1044.1 ± 1.2 kg/m3; mass density (3014.9 kPa): 1044.1 ± 1.2 kg/m3; mass density (3041.8 kPa): 1044.2 ± 1.2 kg/m3; mass density (3063.6 kPa): 1044.2 ± 1.2 kg/m3; mass density (3085.8 kPa): 1044.2 ± 1.2 kg/m3; mass density (3108.7 kPa): 1044.3 ± 1.2 kg/m3; mass density (3136.3 kPa): 1044.2 ± 1.2 kg/m3; mass density (3159.3 kPa): 1044.2 ± 1.2 kg/m3; mass density (3182.9 kPa): 1044.2 ± 1.2 kg/m3; mass density (3207 kPa): 1044.3 ± 1.2 kg/m3; mass density (3235.1 kPa): 1044.3 ± 1.2 kg/m3; mass density (3258.3 kPa): 1044.2 ± 1.2 kg/m3; mass density (3282.9 kPa): 1044.4 ± 1.2 kg/m3; mass density (3311.7 kPa): 1044.3 ± 1.2 kg/m3; mass density (3336.1 kPa): 1044.3 ± 1.2 kg/m3; mass density (3361.2 kPa): 1044.5 ± 1.2 kg/m3; mass density (3386.4 kPa): 1044.3 ± 1.2 kg/m3; mass density (3416 kPa): 1044.5 ± 1.2 kg/m3; mass density (3440.9 kPa): 1044.4 ± 1.2 kg/m3; mass density (3466.4 kPa): 1044.4 ± 1.2 kg/m3; mass density (3492.4 kPa): 1044.4 ± 1.2 kg/m3; mass density (3523.8 kPa): 1044.5 ± 1.2 kg/m3; mass density (3549.8 kPa): 1044.5 ± 1.2 kg/m3; mass density (3576.6 kPa): 1044.5 ± 1.2 kg/m3; mass density (3603.3 kPa): 1044.5 ± 1.2 kg/m3; mass density (3635.4 kPa): 1044.6 ± 1.2 kg/m3; mass density (3661.7 kPa): 1044.6 ± 1.2 kg/m3; mass density (3688.4 kPa): 1044.7 ± 1.2 kg/m3; mass density (3710.9 kPa): 1044.6 ± 1.2 kg/m3; mass density (3733.8 kPa): 1044.6 ± 1.2 kg/m3; mass density (3756.6 kPa): 1044.6 ± 1.2 kg/m3; mass density (3784.2 kPa): 1044.7 ± 1.2 kg/m3; mass density (3807.4 kPa): 1044.6 ± 1.2 kg/m3; mass density (3831.5 kPa): 1044.7 ± 1.2 kg/m3; mass density (3857.6 kPa): 1044.7 ± 1.2 kg/m3; mass density (3881.3 kPa): 1044.7 ± 1.2 kg/m3; mass density (3909.9 kPa): 1044.8 ± 1.2 kg/m3; mass density (3931.4 kPa): 1044.7 ± 1.2 kg/m3; mass density (3952.7 kPa): 1044.7 ± 1.2 kg/m3; mass density (3974.1 kPa): 1044.8 ± 1.2 kg/m3
